The source of these data is the supplement of paper PMC10307832.

Assay in all cases: relative viability (nuclei count vs DMSO), 5 days (fraction); higher = more cells survive
Compound in the experiment “Crizotinib + Luminespib”: C[C@@H](Oc1cc(-c2cnn(C3CCNCC3)c2)cnc1N)c1c(Cl)ccc(F)c1Cl [Crizotinib] + CCNC(=O)c1noc(-c2cc(C(C)C)c(O)cc2O)c1-c1ccc(CN2CCOCC2)cc1 [Luminespib] (partner 0.01 µM)
The procedure, abridged:
(§1)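 A single step with final 0.05% Triton X-100, 1% formaldehyde and 1 ug/ml Hoechst fixed the cells and stained nuclei 5 days after treatment. Lung cancer cell lines in 1536-well plates had been treated by pin tool the day after seeding with one drug alone or a fixed anchor-drug dose plus five library-drug doses (not always all listed) in √10 steps, and nuclei were counted on 4× images. Relative viability is the ratio of nuclei in treated wells to nuclei in vehicle wells, taken as the median of duplicate plates.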

Compound in the experiment “Crizotinib + Linsitinib”: C[C@@H](Oc1cc(-c2cnn(C3CCNCC3)c2)cnc1N)c1c(Cl)ccc(F)c1Cl [Crizotinib] + C[C@]1(O)C[C@@H](c2nc(-c3ccc4ccc(-c5ccccc5)nc4c3)c3c(N)nccn32)C1 [Linsitinib] (partner 1 µM)
Summed up:
as §1

Compound in another experiment: CC(C)C[C@H](NC(=O)[C@H](CCc1ccccc1)NC(=O)CN1CCOCC1)C(=O)N[C@@H](Cc1ccccc1)C(=O)N[C@@H](CC(C)C)C(=O)[C@@]1(C)CO1 [Carfilzomib]
Summed up: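 Hoechst staining, done together with fixation and permeabilisation, marked nuclei for 4× imaging and MetaXpress counting. This followed 5 days without medium change after lung cancer cell lines, kept overnight at 37 °C in 1536-well plates, were pinned with five library-drug doses (not always all listed) spaced by √10 on vehicle-anchored plates. Viability is the ratio of treated-well to vehicle-well nuclei, expressed as a median across plates. Plates passed only at control CV below 25% with at least one doubling.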

Consider NCI-H2009, for which the relative viability with Crizotinib + Luminespib (first compound 0.01 µM) was 0.994; with Crizotinib + Luminespib (first compound 0.03162 µM), 1.02; with Crizotinib + Luminespib (first compound 0.1 µM), 0.988; with Crizotinib + Luminespib (first compound 0.3162 µM), 1.01; with Crizotinib + Luminespib (first compound 1 µM) it was 1.08; with Crizotinib + Linsitinib (first compound 0.01 µM), 1.17. The relative viability with Crizotinib + Linsitinib (first compound 0.03162 µM) worked out at 1.17; with Crizotinib + Linsitinib (first compound 0.1 µM) it was 1.24; with Crizotinib + Linsitinib (first compound 0.3162 µM), 1.17; with Crizotinib + Linsitinib (first compound 1 µM), 1.17; in the experiment with Carfilzomib (0.001 µM), 1.07; in the experiment with Carfilzomib (0.003162 µM), 1.05. In addition, the relative viability with Carfilzomib (0.01 µM) was 1.02; with Carfilzomib (0.03162 µM), 0.44; in the experiment with Carfilzomib (0.1 µM), 0.0846.
For HCC-827, the relative viability with Crizotinib + Luminespib (first compound 0.01 µM) worked out at 0.542; with Crizotinib + Luminespib (first compound 0.03162 µM), 0.651; in the experiment with Crizotinib + Luminespib (first compound 0.1 µM) it was 0.784; with Crizotinib + Luminespib (first compound 0.3162 µM), 0.52; in the experiment with Crizotinib + Luminespib (first compound 1 µM), 0.646; with Crizotinib + Linsitinib (first compound 0.01 µM), 0.927. The relative viability with Crizotinib + Linsitinib (first compound 0.03162 µM) turned out to be 0.931; with Crizotinib + Linsitinib (first compound 0.3162 µM), 0.946; in the experiment with Crizotinib + Linsitinib (first compound 1 µM) it was 0.958; with Carfilzomib (0.001 µM), 1.05; in the experiment with Carfilzomib (0.003162 µM), 1.05; in the experiment with Carfilzomib (0.01 µM), 1.09. Moreover, the relative viability stood at 0.97 in the experiment with Carfilzomib (0.03162 µM) and 0.647 with Carfilzomib (0.1 µM).
NCI-H3122: the relative viability in the experiment with Crizotinib + Luminespib (first compound 0.01 µM) was determined as 0.119; with Crizotinib + Luminespib (first compound 0.03162 µM), 0.0745; with Crizotinib + Luminespib (first compound 0.1 µM), 0.0793; with Crizotinib + Luminespib (first compound 0.3162 µM) it was 0.0767; with Crizotinib + Luminespib (first compound 1 µM) it was 0.105; in the experiment with Crizotinib + Linsitinib (first compound 0.01 µM) it was 1.02. Further, the relative viability in the experiment with Crizotinib + Linsitinib (first compound 0.03162 µM) stood at 1.03; with Crizotinib + Linsitinib (first compound 0.1 µM), 1.08; in the experiment with Crizotinib + Linsitinib (first compound 0.3162 µM), 1.01; with Crizotinib + Linsitinib (first compound 1 µM) it was 1; with Carfilzomib (0.001 µM), 1.03; with Carfilzomib (0.003162 µM), 1.05. The figures for the relative viability with Carfilzomib (0.01 µM), with Carfilzomib (0.03162 µM) and with Carfilzomib (0.1 µM) were 1.03, 0.978 and 0.455, respectively.
With NCI-H2126, the relative viability worked out at 0.717 with Crizotinib + Luminespib (first compound 0.01 µM); 0.886 with Crizotinib + Luminespib (first compound 0.03162 µM); 0.861 with Crizotinib + Luminespib (first compound 0.3162 µM); 0.916 with Crizotinib + Luminespib (first compound 1 µM); 0.73 with Crizotinib + Linsitinib (first compound 0.01 µM); 0.724 with Crizotinib + Linsitinib (first compound 0.03162 µM). For the same cell line, the relative viability turned out to be 0.706 in the experiment with Crizotinib + Linsitinib (first compound 0.1 µM); 0.691 with Crizotinib + Linsitinib (first compound 0.3162 µM); 0.717 in the experiment with Crizotinib + Linsitinib (first compound 1 µM); 0.994 with Carfilzomib (0.001 µM); 1.07 with Carfilzomib (0.003162 µM); 1.03 with Carfilzomib (0.01 µM). The relative viability with Carfilzomib (0.03162 µM) was 0.93; with Carfilzomib (0.1 µM), 0.568.
Take HARA: the relative viability in the experiment with Crizotinib + Luminespib (first compound 0.01 µM) came to 0.819; with Crizotinib + Luminespib (first compound 0.03162 µM), 0.77; with Crizotinib + Luminespib (first compound 0.1 µM), 0.708; with Crizotinib + Luminespib (first compound 1 µM), 0.682; in the experiment with Crizotinib + Linsitinib (first compound 0.01 µM) it was 0.919; in the experiment with Crizotinib + Linsitinib (first compound 0.03162 µM), 0.978. The relative viability was determined as 0.778 with Crizotinib + Linsitinib (first compound 0.1 µM); 0.976 in the experiment with Crizotinib + Linsitinib (first compound 0.3162 µM); 0.873 with Crizotinib + Linsitinib (first compound 1 µM); 0.996 with Carfilzomib (0.001 µM); 1.09 with Carfilzomib (0.003162 µM); 1.2 with Carfilzomib (0.01 µM). Also, the relative viability in the experiment with Carfilzomib (0.03162 µM) was determined as 0.427; with Carfilzomib (0.1 µM), 0.126.
With LC-2-ad, the relative viability stood at 0.953 with Crizotinib + Luminespib (first compound 0.01 µM); 0.943 with Crizotinib + Luminespib (first compound 0.03162 µM); 1.09 with Crizotinib + Luminespib (first compound 0.1 µM); 0.942 in the experiment with Crizotinib + Luminespib (first compound 0.3162 µM); 0.91 with Crizotinib + Luminespib (first compound 1 µM); 0.872 with Crizotinib + Linsitinib (first compound 0.01 µM). The relative viability with Crizotinib + Linsitinib (first compound 0.03162 µM) came out at 0.879; with Crizotinib + Linsitinib (first compound 0.1 µM) it was 0.762; with Crizotinib + Linsitinib (first compound 1 µM), 0.852; in the experiment with Carfilzomib (0.001 µM) it was 1.04; in the experiment with Carfilzomib (0.003162 µM), 1.16; with Carfilzomib (0.01 µM), 1.03. For the same cell line, the relative viability was 0.473 with Carfilzomib (0.03162 µM) and 0.226 in the experiment with Carfilzomib (0.1 µM).
For UMC-11, the relative viability was found to be 0.898 in the experiment with Crizotinib + Luminespib (first compound 0.01 µM); 1.1 with Crizotinib + Luminespib (first compound 0.03162 µM); 0.885 in the experiment with Crizotinib + Luminespib (first compound 0.1 µM); 0.965 in the experiment with Crizotinib + Luminespib (first compound 0.3162 µM); 1.12 with Crizotinib + Luminespib (first compound 1 µM); 1.04 with Crizotinib + Linsitinib (first compound 0.03162 µM). The relative viability worked out at 1.16 with Crizotinib + Linsitinib (first compound 0.3162 µM); 0.96 with Crizotinib + Linsitinib (first compound 1 µM); 0.947 with Carfilzomib (0.001 µM); 1.03 with Carfilzomib (0.003162 µM); 0.987 in the experiment with Carfilzomib (0.01 µM); 0.854 in the experiment with Carfilzomib (0.03162 µM). Further, the relative viability with Carfilzomib (0.1 µM) was 0.578.
With EMC-BAC-2, the relative viability with Crizotinib + Luminespib (first compound 0.01 µM) was found to be 1.12; in the experiment with Crizotinib + Luminespib (first compound 0.03162 µM), 1.25; in the experiment with Crizotinib + Luminespib (first compound 0.1 µM) it was 1.09; with Crizotinib + Luminespib (first compound 0.3162 µM) it was 1.16; in the experiment with Crizotinib + Luminespib (first compound 1 µM) it was 1.22; with Crizotinib + Linsitinib (first compound 0.01 µM), 0.758. Besides, the relative viability with Crizotinib + Linsitinib (first compound 0.03162 µM) amounted to 0.834; with Crizotinib + Linsitinib (first compound 0.1 µM) it was 0.809; in the experiment with Crizotinib + Linsitinib (first compound 0.3162 µM), 0.798; in the experiment with Crizotinib + Linsitinib (first compound 1 µM), 0.81; in the experiment with Carfilzomib (0.001 µM), 0.957; with Carfilzomib (0.003162 µM), 1.18. In addition, the results for the relative viability with Carfilzomib (0.01 µM), with Carfilzomib (0.03162 µM) and with Carfilzomib (0.1 µM) were 1.04, 0.972 and 0.432, respectively.
